Data as given in patent publication US10035816B2, “Compound for treating respiratory syncytial virus infection and preparation method and use thereof” (SHANDONG UNIVERSITY, priority 2016, dated 2018).

Experiments:
Type in all cases: cell-based
[1] = test system: Smo-dependent SAG induced gene expression (Hh signal pathway); test: Hedgehog (Hh) signal pathway inhibition assay, Gli-binding site-luciferase reporter in NIH3T3 cells; conditions: compound 10 uM, SAG 0.5 ìM, control (compound-free, presence of SAG) = 100% gene expression (FIG. 5)
Procedure: The detection procedure of compound effect on Hh signal pathway inhibiting is as following. NIH3T3 cells are seeded cells in 6 well plates, or 12 well plate one day in advance, with 5% FBS DMEM, without antibiotics per well so that they will be 90˜95% confluent at the time of transfection. Plasmids are diluted with Lipofectamine 2000 (total volume is 100-1000 ìl) and added to each well containing cells and medium, followed by incubation at 37° C. in a CO2 incubator for 48 h. […] At the end of the incubation, cells are washed, lysed and lysate transferred to a 96-well white plate. LAR II reagent is added (from Promega, Dual-luciferase reporter assay system) and samples read in a luminescence reader.
The control (compound-free, presence of SAG) is scored at 100% gene expression.

[2] = test system: RSV replication and Hh activity; test: Coefficient of inhibition (ICrh): RSV replication inhibition vs. Hh pathway inhibition relative to CPM; conditions: ratio of RSV inhibition to Hh inhibition of the analog divided by the same ratio of CPM; >1 favorable (FIG. 6)
Excerpt: To assess the differential Hh pathway inhibition vs. replication inhibition of analogs (cpd), we determined a coefficient of inhibition (ICrh).
A score higher than 1 indicates a favorable profile.
The substep of screening compounds is that selecting the compounds with ICrh data larger than 1, and filtering out the compounds with ICrh data smaller than 1. Furthermore, the compounds with larger ICrh data will be selected preferentially.

[3] = test system: Human respiratory syncytial virus Long strain; test: RSV replication assay (virus yield / focus titration in HEp-2 cells); conditions: for maximum inhibition effect on RSV replication: compounds tested at 2 ìM and 8 ìM, HEp-2 cells, MOI 0.1, compared with blank control (FIG. 4)
Procedure: The detection procedure of compound effect on RSV replication inhibiting is as following. Human respiratory syncytial virus Long strain and HEp-2 cells were used for infection assays. Cells were maintained in DMEM, supplemented with penicillin/streptomycin and 10% FBS, and incubated at 37° C., 5% CO2. Virus was passaged in HEp-2 cells in the same conditions, but with 2% FBS. Virus stocks were prepared by infecting confluent HEp-2 cells at a low multiplicity of infection (MOI) of 0.1 for two to three days. Cells and virus-containing supernatant were then subjected to a single freeze/thaw cycle at −80° C. to release cell-bound virus, and the sample was clarified by centrifugation at 2000×g for 10 min at 4° C. The supernatant was homogenized, aliquoted and stored at −20° C.
Compounds were tested either during virus adsorption for 1 h at 4° C. to investigate viral entry, post-adsorption for 72 h at 37° C. to investigate viral propagation and replication, or during all stages of infection. The concentration of compound resulting in 50% inhibition (IC50) of virus replication was determined by focus counting (viral entry) or focus size measurement (viral propagation) and was determined using non-linear regression analysis using GraphPad Prism. To assess the cytotoxicity of compounds, a CellTiter-Glo Luminescent Cell Viability Assay was carried following the manufacturer's instruction in the conditions of the focus reduction assay.
As shown in the figure, compounds were tested at 2 concentrations (2 ìM, 8 ìM) in the RSV replication assay. The control (compound-free) is scored at 100% replication.
Human respiratory syncytial virus Long strain (ATCC reference VR-26) and HEp-2 cells (ATCC reference CCL-23) were used for infection assays. Cells were maintained in DMEM, supplemented with penicillin/streptomycin and 10% FBS, and incubated at 37° C., 5% CO2. Virus was passaged in HEp-2 cells in the same conditions, but with 2% FBS. Virus stocks were prepared by infecting confluent HEp-2 cells at a low multiplicity of infection (MOI) of 0.1 for two to three days. […]

| Compound | inhibition of SAG-induced gene expression [1] [%] | coefficient of inhibition on RSV replication and Hh activity (ICrh) [2] | maximum inhibition effect on RSV replication [3] [%] | RSV replication in the presence of compound ([3]; compound-free control scored at 100% replication (FIG. 4)) [%] |
| --- | --- | --- | --- | --- |
| CCNC(=O)O[C@H]1CC[C@@]2(C)C(=CC[C@H]3[C@@H]4CC[C@]5(O[C@@H]6C[C@H](C)CN(C(=O)C(F)(F)F)[C@H]6[C@H]5C)C(C)=C4C[C@@H]32)C1 [S1-2] | 36 | 1.446 | 99 |  |
| cyclopamine [CPM, reference compound] | 56 |  |  | 0 |
| CC1=C2C[C@H]3[C@@H](CC=C4C[C@@H](OC(=O)NC5CC5)CC[C@@]43C)[C@@H]2CC[C@]12O[C@@H]1C[C@H](C)CN(C(=O)C(F)(F)F)[C@H]1[C@H]2C [S1-4] | 5 | 1.617 | 88 |  |
